Data taken from ChEMBL document CHEMBL1158742, “Production of 8-demethylgeldanamycin and 4,5-epoxy-8-demethylgeldanamycin from a recombinant strain of Streptomyces hygroscopicus” (J Nat Prod, 2005).

tested on: SK-BR-3; test: Cytotoxicity against human SKBR3 cells after 72 hrs by celltiter-Glo assay; type: functional, cell-based; conditions: SK-BR-3, 72 h

`C=CCNC1=C2C[C@@H](C)C[C@H](OC)[C@H](O)[C@@H](C)/C=C(\C)[C@H](OC(N)=O)[C@@H](OC)/C=C\C=C(/C)C(=O)NC(=CC1=O)C2=O` [TANESPIMYCIN] was tested. Which IC50 did it give?
Its IC50 is 27 nM.

How did the IC50 turn out when `COC1=C2C[C@@H](C)C[C@H](OC)[C@H](O)[C@@H](C)/C=C/[C@H](OC(N)=O)[C@@H](OC)/C=C\C=C(/C)C(=O)NC(=CC1=O)C2=O` was run?
The IC50 was 481 nM.

With `COC1=C2C[C@@H](C)C[C@H](OC)[C@H](O)[C@@H](C)/C=C/[C@H](OC(N)=O)[C@@H](OC)[C@@H]3O[C@@H]3/C=C(\C)C(=O)NC(=CC1=O)C2=O` as the compound, how does the IC50 read?
The IC50 was 280 nM.
